# Assay results from US20050222259A1, “Methods of activating PPAR-alpha nuclear receptors in mammals” (priority 2004, published 2005).
# Test: oral application of conjugated fatty acids: appetite, satiety and food intake
# Assay type: in vivo
# Conditions: for appetite-reducing effect compared with other CLA isomers and non-conjugated linoleic acid: comparison of isomers
Molecule,appetite-reducing effect compared with other CLA isomers and non-conjugated linoleic acid,"appetite-reducing effect compared with other CLA isomers and non-conjugated linoleic acid (listed as cis-9,trans-11 isomer of conjugated linoleic acid)","effect on appetite, satiety and food intake (oral application)"
"CCCCCC/C=C/C=C\CCCCCCCC(=O)O (single isomer, unassigned) [cis-9,trans-11 CLA-isomer, cis-9,trans-11 isomer of conjugated linoleic acid]",most efficacious in inhibiting appetite,more pronounced,
conjugated linoleic acid [CLA],,,reduction of appetite
